Data taken from patent US20190119200A1, “TERTIARY AMIDES AND METHOD OF USE” (AbbVie Inc., priority 2016, published 2019).

Molecular target: T1, LPAR1 (Homo sapiens, UniProt Q92633)
T1 construct: host or cells: U2OS
Assay: LPAR1 FLIPR Assay
Format: cell-based
Settings: U2OS cells stably expressing LPAR1, LPA (EC80), Calcium 6 FLIPR dye; for Emax: read-out: Maximum Inhibition
Method: U2OS cells stably expressing LPAR1 (Life Technologies #K1519A) were plated at 12000 cells/well in growth medium (McCoy's 5A medium(Life Technologies 16600-082)) with 10% dFBS (Life Technologies 26400-036), 0.1 mM non-essential amino acids, 25 mM HEPES, 1 mM sodium pyruvate, 1% penicillin/streptomycin, 50 μg/mL hygromycin, and 100 μg/mL Geneticin® in black-walled, clear-bottom 384-well plates (Corning #3683) and incubated in humidified 5% CO2 at 37° C. overnight. On the day of the assay, medium was removed and 30 μL of 5% Calcium 6 FLIPR dye in assay buffer-HBSS (Life Technologies #14025) containing 20 mM HEPES (Life Technologies #15630-080) was added to the cells. Cells were incubated at 37° C. in the dark for 2 hours. Compounds were 3-fold serial diluted from 10 mM for 11-points using dimethyl sulfoxide. 1 μL of compound in DMSO was diluted in 82.3 μL assay buffer immediately before the assay. Using a FLIPR® TETRA® system, 15 μL of the (4×) compound solutions were first added to the cells, then 15 μL of LPA (EC80) diluted in of assay buffer supplemented with 0.1% BSA was added 3 minutes later to activate the receptor. Changes in fluorescence were measured at wavelengths of 515-575 nm over the course of the experimental run. IC50 values were calculated from curve fits of the ratio data using a four-parameter logistic Hill equation (Assay Explorer 3.3 Client).

T1 sequence (Q92633 whole entry): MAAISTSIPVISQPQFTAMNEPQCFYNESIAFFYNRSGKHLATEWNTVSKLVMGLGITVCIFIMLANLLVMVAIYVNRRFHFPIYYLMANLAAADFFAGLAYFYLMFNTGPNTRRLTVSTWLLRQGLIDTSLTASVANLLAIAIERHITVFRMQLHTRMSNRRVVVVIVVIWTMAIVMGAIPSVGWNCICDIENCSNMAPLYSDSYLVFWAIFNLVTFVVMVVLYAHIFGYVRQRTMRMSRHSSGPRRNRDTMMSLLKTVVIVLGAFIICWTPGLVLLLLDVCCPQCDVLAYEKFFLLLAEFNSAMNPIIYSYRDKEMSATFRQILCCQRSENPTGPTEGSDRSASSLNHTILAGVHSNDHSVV

| Compound | IC50 [nM] | Emax [%] | Maximum Inhibition [%] |
| --- | --- | --- | --- |
| COc1cc(C(=O)N(CCCCC(=O)O)CCCc2ccc(Cl)cc2Cl)cc(OC)c1C [Example 49, 5-{[3-(2,4-dichlorophenyl)propyl](3,5-dimethoxy-4-methylbenzoyl)amino}pentanoic Acid] | 24300 | 58 | – |
| COc1cc(C(=O)N(CCCCC(=O)O)CCCc2ccccc2)cc2ccoc12 [Example 24, 5-[(7-methoxy-1-benzofuran-5-carbonyl)(3-phenylpropyl)amino]pentanoic Acid] | 481 | 58 | – |
| COc1ccc(CCCN(CCCCC(=O)O)C(=O)c2cc(OC)c(C)c(OC)c2)cc1 [Example 43, 5-{(3,5-dimethoxy-4-methylbenzoyl)[3-(4-methoxyphenyl)propyl]amino}pentanoic Acid] | 23300 | 55 | – |
| O=C(O)CCCCN(CCCc1ccccc1)C(=O)c1cccc(OC(F)(F)F)c1 [Example 26, 5-{(3-phenylpropyl)[3-(trifluoromethoxy)benzoyl]amino}pentanoic Acid] | > 30000 | 50 | – |
| O=C(O)CCCCN(CCCc1ccccc1)C(=O)C1CC(=O)Nc2ccc(F)cc21 (stereo not drawn) [Example 168, 5-[(6-fluoro-2-oxo-1,2,3,4-tetrahydroquinoline-4-carbonyl)(3-phenylpropyl)amino]pentanoic Acid] | 1100 | 62 | – |
| 5-[(3-methoxy-4-methylbenzoyl)(3-phenylpropyl)amino]pentanoic Acid [Example 28] | 398 | – | 72 |
| COc1cc(OC)cc(C(=O)N(CCCc2ccccc2)CCSCC(=O)O)c1 [Example 101, ({2-[(3,5-dimethoxybenzoyl)(3-phenylpropyl)amino]ethyl}sulfanyl)acetic Acid] | 6950 | 59 | – |
| COc1cc(C(=O)N(CCCc2ccccc2)CCOC(=O)NS(=O)(=O)c2ccc(F)cc2)cc(OC)c1C [Example 183, 2-[(3,5-dimethoxy-4-methylbenzoyl)(3-phenylpropyl)amino]ethyl (4-fluorobenzene-1-sulfonyl)carbamate] | > 10000 | 30 | – |
| COc1ccc([C@@H](OC)C(=O)N(CCCCC(=O)O)CCCc2ccccc2)cc1 [Example 66, 5-{[(2R)-2-methoxy-2-(4-methoxyphenyl)acetyl](3-phenylpropyl)amino}pentanoic Acid] | 312 | 71 | – |
| COc1cc(C(=O)N(CCCc2ccccc2)C[C@H]2CCC(=O)O2)cc(OC)c1C [Example 181, 3,5-dimethoxy-4-methyl-N-{[(2R)-5-oxooxolan-2-yl]methyl}-N-(3-phenylpropyl)benzamide] | 486 | 80 | – |
| COc1cc(C(=O)N(CCCCC(=O)O)CCCc2ccc(Cl)cc2)cc(OC)c1C [Example 36, 5-{[3-(4-chlorophenyl)propyl](3,5-dimethoxy-4-methylbenzoyl)amino}pentanoic Acid] | 600 | 83 | – |
| COc1cc(C(=O)N(C/C=C/CC(=O)O)CCCc2ccccc2)cc(OC)c1C [Example 121, (3E)-5-[(3,5-dimethoxy-4-methylbenzoyl)(3-phenylpropyl)amino]pent-3-enoic Acid] | 503 | 86 | – |
| CCOC1CC1(C(=O)N(CCCCC(=O)O)CCCc1ccccc1)c1ccc(OC)cc1 (stereo not drawn) [Example 149, 5-{[2-ethoxy-1-(4-methoxyphenyl)cyclopropane-1-carbonyl](3-phenylpropyl)amino}pentanoic Acid] | 838 | 72 | – |
| COc1ccc(C2(C(=O)N(CCCCC(=O)O)CCCc3ccccc3)CC(OC)C2)cc1 (stereo not drawn) [Example 158, 5-{[cis-3-methoxy-1-(4-methoxyphenyl)cyclobutane-1-carbonyl](3-phenylpropyl)amino}pentanoic Acid] | 511 | – | 98 |
| COc1cc(C(=O)N(CCCCC(=O)O)CCCc2cccc(C(F)(F)F)c2)cc(OC)c1C [Example 40, 5-[(3,5-dimethoxy-4-methylbenzoyl){3-[3-(trifluoromethyl)phenyl]propyl}amino]pentanoic Acid] | 29300 | 45 | – |

Further compounds by falling IC50, results first:

| IC50 [nM] | Emax [%] | Maximum Inhibition [%] | Compound |
| --- | --- | --- | --- |
| 309 | 79 | – | COc1cc(OC(F)(F)F)cc(C(=O)N(CCCCC(=O)O)CCCc2ccccc2)c1 [Example 29, 5-{[3-methoxy-5-(trifluoromethoxy)benzoyl](3-phenylpropyl)amino}pentanoic Acid] |
| 302 | – | 85 | COc1ccc(C2(C(=O)N(CCCCC(=O)O)CCCc3ccccc3)CC(OC)C2)cc1 (stereo not drawn) [Example 159, 5-{[trans-3-methoxy-1-(4-methoxyphenyl)cyclobutane-1-carbonyl](3-phenylpropyl)amino}pentanoic Acid] |
| 290 | 59 | – | COc1cc(OC)cc(C(=O)N(CCCc2ccccc2)CCOCC(=O)O)c1 [Example 15, {2-[(3,5-dimethoxybenzoyl)(3-phenylpropyl)amino]ethoxy}acetic Acid] |
| 236 | 90 | – | COc1cc(C(=O)N(CCCCC(=O)O)CCCc2ccc(C)cc2)cc(OC)c1C [Example 42, 5-{(3,5-dimethoxy-4-methylbenzoyl)[3-(4-methylphenyl)propyl]amino}pentanoic Acid] |
| 225 | 69 | – | COc1cc(C(=O)N(CCCCC(=O)O)[C@@H](C)CCc2ccccc2)cc(OC)c1C [Example 154, 5-{(3,5-dimethoxy-4-methylbenzoyl) [(2S)-4-phenylbutan-2-yl]amino}pentanoic Acid] |
| 224 | 82 | – | CCOc1cc(C(=O)N(CCCCC(=O)O)CCCc2ccccc2)cc(OCC)c1OCC [Example 21, 5-[(3-phenylpropyl)(3,4,5-triethoxybenzoyl)amino]pentanoic Acid] |
| 143 | 89 | – | COc1cc(C(=O)N(CCCCC(=O)NS(=O)(=O)c2ccc(F)cc2)CCCc2ccccc2)cc(OC)c1C [Example 140, N-{5-[(4-fluorobenzene-1-sulfonyl)amino]-5-oxopentyl}-3,5-dimethoxy-4-methyl-N-(3-phenylpropyl)benzamide] |
| 128 | 66 | – | COc1cc(C(=O)N(CCCc2ccccc2)CC(=O)N[C@@H](Cc2ccccc2)C(=O)O)cc(OC)c1C [Example 46, N-(3,5-dimethoxy-4-methylbenzoyl)-N-(3-phenylpropyl)glycylphenylalanine] |
| 127 | 83 | – | COc1cc(C(=O)N(CCCCC(=O)O)[C@H](C)CCc2ccccc2)cc(OC)c1C [Example 153, 5-{(3,5-dimethoxy-4-methylbenzoyl)[(2R)-4-phenylbutan-2-yl]amino}pentanoic Acid] |
| 26 | 99 | – | COc1cc(C(=O)N(CCCc2ccccc2)CCCC(C)P(=O)(O)O)cc(OC)c1C (stereo not drawn) [Example 72, {5-[(3,5-dimethoxy-4-methylbenzoyl)(3-phenylpropyl)amino]pentan-2-yl}phosphonic Acid] |
| 21 | 99 | – | COc1cc(C(=O)N(CCCc2ccccc2)CCOC(C)(C)C(=O)NS(C)(=O)=O)cc(OC)c1C [Example 156, N-[2-({1-[(methanesulfonyl)amino]-2-methyl-1-oxopropan-2-yl}oxy)ethyl]-3,5-dimethoxy-4-methyl-N-(3-phenylpropyl)benzamide] |
| 12 | 91 | – | COc1cc(C(=O)N(CCCCP(=O)(O)O)CCCc2ccccc2)cc(OC)c1C [Example 71, {4-[(3,5-dimethoxy-4-methylbenzoyl)(3-phenylpropyl)amino]butyl}phosphonic Acid] |
